Laboratory results reported in ChEMBL document CHEMBL1151657, “Flavonoids from the Wood of Salix caprea as Inhibitors of Wood-Destroying Fungi” (1985).

Legend:
Type in all cases: functional
Coniophora puteana [1] = assay: Antimicrobial activity against Coniophora puteana after 60 mins by agar diffusion method
Sporotrichum [2] = assay: Antimicrobial activity against Sporotrichum pulverulentum after 60 mins by agar diffusion method
Trichoderma viride [3] = assay: Antimicrobial activity against Trichoderma viride after 60 mins by agar diffusion method
Sporotrichum [4] = assay: Antimicrobial activity against Sporotrichum pulverulentum at 0.01% concentration after 60 mins by agar diffusion method
Coniophora puteana [5] = assay: Antimicrobial activity against Coniophora puteana at 0.01% concentration after 60 mins by agar diffusion method
Coniophora puteana [6] = assay: Antimicrobial activity against Coniophora puteana at 1% concentration after 60 mins by agar diffusion method
Sporotrichum [7] = assay: Antimicrobial activity against Sporotrichum pulverulentum at 1% concentration after 60 mins by agar diffusion method
Trichoderma viride [8] = assay: Antimicrobial activity against Trichoderma viride at 1% concentration after 60 mins by agar diffusion method
Staphylococcus aureus = assay: Antimicrobial activity against Staphylococcus aureus after 30 mins by agar diffusion method
Escherichia coli = assay: Antimicrobial activity against Escherichia coli after 30 mins by agar diffusion method
[9] = system: Trichophyton mentagrophytes; assay: Antimicrobial activity against Trichophyton mentagrophytes after 60 mins by agar diffusion method
Enterococcus faecalis = assay: Antimicrobial activity against Streptococcus faecalis after 30 mins by agar diffusion method

SMILES | inhibition zone (IZ) (Coniophora puteana [1]) | inhibition zone (IZ) (Sporotrichum [2]) | inhibition zone (IZ) (Trichoderma viride [3]) | also measured
O=C1c2c(O)cc(O)cc2O[C@H](c2ccc(O)cc2)[C@H]1O [DIHYDROKAEMPFEROL] | 10 mm | – | – | –
O=[N+]([O-])c1c(Cl)c(Cl)c(Cl)c(Cl)c1Cl [PENTACHLORONITROBENZENE] | 10 mm | <10 mm | 10 mm | –
O=C1C2CC=CCC2C(=O)N1SC(Cl)(Cl)Cl (stereo unspecified) [CAPTAN] | – | – | – | inhibition zone (IZ) (Sporotrichum [4]): 15 mm; inhibition zone (IZ) (Coniophora puteana [5]): 10 mm; inhibition zone (IZ) (Coniophora puteana [6]): >25 mm; inhibition zone (IZ) (Sporotrichum [7]): >25 mm; inhibition zone (IZ) (Trichoderma viride [8]): 15 mm
COc1ccc(C2Oc3cc(O)cc(O)c3C(=O)C2O)cc1 (stereo unspecified) [DIHYDROKAEMPFERIDE] | <10 mm | – | – | inhibition zone (IZ) (Staphylococcus aureus): 8 mm
O=C1C[C@@H](c2ccc(O)cc2)Oc2cc(O)cc(O)c21 [NARINGENIN] | 10 mm | 10 mm | 10 mm | inhibition zone (IZ) (Escherichia coli): 8 mm; inhibition zone (IZ) [9]: 11 mm; inhibition zone (IZ) (Staphylococcus aureus): 17.2 mm; inhibition zone (IZ) (Enterococcus faecalis): 10 mm
Oc1cc(O)c2c(c1)O[C@H](c1ccc(O)c(O)c1)[C@@H](O)C2 [CIANIDANOL] | – | – | 10 mm | –
O=C1c2c(O)cc(O)cc2O[C@H](c2ccc(O)c(O)c2)[C@H]1O [(+)-TAXIFOLIN] | – | – | 10 mm | –
O=C1C[C@@H](c2ccc(O)cc2)Oc2cc(O[C@@H]3O[C@H](CO)[C@@H](O)[C@H](O)[C@H]3O)cc(O)c21 [PRUNIN] | – | 15 mm | – | –
